Laboratory results taken from patent US10428336B2, “Method for modulating plant growth” (The Australian National University, priority 2013, dated 2019).
Square brackets hold non-standard residues; d marks the D form. Ends that are not written are not given here. Hyp = O=C(O)[C@@H]1C[C@@H](O)CN1

Legend:
M. truncatula roots = test: Exogenous application of synthetic CEP peptides to M. truncatula roots; format: in vivo, Medicago truncatula; details: synthetic ligand applied to roots
Text: The CEP peptides were synthesized at the Biomolecular Resource Facility, The Australian National University. The 15 amino acid (aa) peptides corresponding to the conserved domains of MtCEP1 (AFQHypTTPGNSHypGVGH and EFQKTNPGHSHypGVGH—SEQ ID Nos: 451 and 452 respectively—where Hyp indicates hydroxy proline residue) and M. hapla MhCEP2 (AFRHypTAPGHSHypGVGH; SEQ ID NO: 453) were synthesized and validated as previously described in Djordjevic M A, et al. (2011), “Border sequences of Medicago truncatula CLE36 are specifically cleaved by endoproteases common to the extracellular fluids of Medicago and soybean”, J Exp Bot 62(13):4649-4659. The root length of wild-type plants was measured four days after transfer to Fåhraeus-medium containing the synthetic peptide. For the hormone assays, A17 plants were grown on Fåhraeus-medium for 10 days before transferring to Fåhraeus-medium containing 10^−6 M of the respective phytohormones; 1-aminocyclopropane-1-carboxylic acid (ACC), 6-benzylaminopurine (BAP), gibberellic acid (GA), synthetic analog of strigolactone (GR24), methyl jasmonate (MeJA) and 1-naphthaleneacetic acid (NAA).

Arabidopsis root growth = details: synthetic 15 amino acid peptide at 10^−6 M to 10^−7 M; cited from earlier work
[1] = test system: Brachypodium distachyon BD21; test: Shoot growth of B. distachyon in layered agar medium containing CEP peptide; format: in vivo; details: 16 day old plants, 1 μM peptide in medium with barrier; for shoot length: vs no peptide controls, ANOVA
Procedure: Brachypodium. distachyon BD21 seeds were sterilised by washing in 80% ethanol for 1 minute, followed by shaking in 50 ml of 10% stock sodium hypochlorite (Northfork) with 200 μl of Triton X-100 (per 50 mL) for 5 minutes, before rinsing three times in sterile water. Seeds were then stratified for 3 days in the dark at 4° C. to induce synchronized germination. Plants were grown at 21° C. on a 16/8 h light/dark cycle in a constant environment walk-in cabinet (100 μmol/m^−2/s^−2).
Murashige and Skoog basal medium (Sigma-Aldrich Corporation, St. Louis, USA) was prepared (2.2 g/L, sterile RO water), 10% MES buffer added, and the pH adjusted to 5.7 using 1 M KOH. Falcon tubes (BD Biosciences, Australia; 50 mL max volume) containing two agar layers were prepared using the following ranges of agar concentrations: 0.2%, 0.4%, 0.5%, 0.8%, 1.0% for soft top layer and 0.5%, 1.0%, 1.5%, 2.0%, 2.5%, 3.0% and 4.0% for hard bottom layer. Type-M agar (Sigma-Aldrich Corporation) was used in all experiments. The hard layers contained 15 mL of agar and the (upper) soft layers contained 10 mL of agar. Seeds were placed one per falcon tube for root assays, with embryos facing away from the media.
Synthetic CEP peptides corresponding to those predicted to be the final products of the BdCEP1 and AtCEP5 coding sequences (SEQ ID NOs: 483 and 11, respectively) were prepared (but the BdCEP1 peptide was synthesized missing the first two amino acids, and designated as BdCEP3a in FIGS. 16 and 17) and added to molten media (60° C.) to a final concentration of 1μM.
Tubes were set up with optimal agar concentrations of 0.5% for soft top layer and 2.5% for hard bottom layer which induced a strong mechanical response in untreated plants. A layered agar system with no peptide addition and an un-layered system (0.5%, uniform agar concentration; 25 ml) with no peptide addition were used as controls. Each tube was fitted into an 8 slot Falcon tube rack which was covered in aluminum foil to minimize light exposure to the root systems. This system allowed tubes to be periodically removed for easy visual inspection. The upper level of the soft layer was below the level of the rack.
Shoot length was measured at the end of the growth period. Data obtained from analyzing root system measurements were statistically analyzed.

[2] = test system: Arabidopsis thaliana (accession Col-0); test: Root growth assay of Col-0 plants on standard medium supplemented with synthetic CEP peptides; format: in vivo; details: 12-day-old Col-0 plants, peptide at 10−6 M (1 μM), compared to untreated plants
Procedure: FIG. 8—CEP synthetic peptides decrease primary root length and lateral root density. (A) CEP peptides used in growth assays. (hyP) indicates hydroxyproline residues. (B) Alignment of CEP3, CEP5 and CEP9.1 peptide domains. (C) Primary root length and lateral root density of 12-day-old Col-0 plants grown on standard medium supplemented with 1 μM of the specified peptide. n≥7 plants. (D) Differential biological activity of CEP3, CEP5 and CEP9 peptide variants. The histogram indicates the lowest concentration at which a peptide elicited a significant reduction in primary root length compared to untreated plants (P<0.05). Col-0 plants were grown vertically for 12 days on standard medium supplemented with peptide concentrations ranging from 10^−6 M to 10^−12 M. n=7-16 plants. Error bars show standard error. *P≤0.05; **P≤0.01; *** P≤0.001 (two-sample t-test, Genstat).
For root assays, seeds of Arabidopsis thaliana (accession Col-0) were surface sterilized with 6.25% bleach, stratified for 3-4 days and sown onto plates. […] Plates were imaged using an Epson scanner and images were analysed using the SmartRoot plugin (Lobet et al., 2011) in ImageJ. Statistically significant differences were determined using a two-sample t-test (Genstat 14th edition) where appropriate. […]

| Substance | root phenotype (periodic bumps resembling galls) (M. truncatula roots) | number of leaves per plant on average [1] | shoot length [1] | also measured |
| --- | --- | --- | --- | --- |
| AFQHypTTPGNSHypGVGH and EFQKTNPGHSHypGVGH [MtCEP1] | periodic bumps induced | – | – | – |
| AFR[Hyp]TAPGHS[Hyp]GVGH [MhCEP2] | periodic bumps induced | – | – | – |
| CEP1: synthetic 15 amino acid CEP1 peptide of Ohyama et al., 2008 (DFRPTNPGNSPGVGH; ends and bridges not checked; listed as Arabidopsis thaliana) | – | – | – | root growth (Arabidopsis root growth): inhibited root growth |
| DFRPTTPGHSPGIGH [AtCEP5] | – | 4.9 leaves | significantly longer shoots | – |
| DFVPTSPGNSPGVGH [CEP9.1, synthetic non-hydroxylated CEP9.1 peptide domain] | – | – | – | lateral root density [2]: reduced lateral root density; primary root length [2]: much weaker effect on primary root length |
| DSTTPGHSPSIGH (also: hydroxyproline predicted at Pro5 and Pro9, not given here for synthetic peptide) [BdCEP1, BdCEP1 peptide synthesized missing the first two amino acids, designated BdCEP3a] | – | 4.7 leaves | significantly longer shoots | – |
